{
  "source": "patent US20050201991A1",
  "about": "“Stem cell culture” (priority 2002, published 2005)",
  "system": "NTERA2 human EC cells",
  "assay": "Two fluorochrome flow cytometric analysis of FGF-4 reporter with SSEA-3 labelling on differentiation",
  "format": "cell-based",
  "details": "retinoic acid treated versus undifferentiated NTERA2 cells",
  "protocol": "Variations of these vectors including pTK-GFP, p5FGF4EN-GFP and p5FGF4EN-Bact-GFP with WES site linking an antibiotic selection marker, for example puromycin or neonmycin resistance, to the expression of GFP were also created (IRESantibiotic selection marker sequences were inserted in the Notl cloning site immediately 3′ to the GFP sequence).\nThe human embryonal carcinoma (EC) cell line, NTERA2 cl D1, was cultured in DMEM with 10% fetal calf serum as previously described (Andrews et al 1984). […]\nHuman EC and ES cells were transfected by the same protocol: After incubation at 37° C. overnight the cells were transfected, following the manufacturer's protocol, as follows: 9.5 μg DNA was diluted into 300 μl 0.15 M NaCl and mixed with 21 μl ExGen 500 (MBI Fermentas) and vortexed. […] After incubating for 6-12 hours at 37 C, the medium was removed and the cells fed with fresh medium and fluorescence observed by microscopy under UV epi-illumination.\nCell surface antigen expression of cultured cells was assessed by indirect immunofluorescence detected by flow cytofluorimetry, after harvesting the cultures as single cell suspensions using trypsin-EDTA, as described previously (Andrews et al 1987, Fenderson et al 1987). […] In some experiments, cells that were either positive or negative for SSEA3 and SSEA1 were isolated by fluorescence activated cell sorting (Andrews et al 1987).",
  "data": [
    {"smiles": "CC1=C(/C=C/C(C)=C/C=C/C(C)=C/C(=O)O)C(C)(C)CCC1", "note": "[retenoic acid, all-trans-retinoic acid]", "values": [
      {"measurement": "GFP expression from FGF-4 reporter", "setting": "p5FGF4EN-GFPIP reporter", "result": "greatly reduced"},
      {"measurement": "SSEA-3 expression", "result": "reduction"}
    ]}
  ]
}
